Data as given in patent publication US20150366879A1, “DIFLUPREDNATE EMULSION COMPOSITION CONTAINING ANTIMICROBIAL METAL” (SENJU PHARMACEUTICAL CO., LTD., priority 2013, published 2015).
Where a name gives a salt, the structure may show the parent alone. Read-outs that look alike come from different tables or passages of the source.

Test system: Staphylococcus aureus, Escherichia coli and Pseudomonas aeruginosa
Assay: preservative efficacy test, judgment of immediate effectiveness over all microbial species
Assay type: cell-based
Method: As the test microorganism, Staphylococcus aureus (ATCC 6538), Escherichia coli (ATCC 8739) and Pseudomonas aeruginosa (ATCC 9027) were used. Each test microorganism was inoculated on the surface of a slant agar medium and precultured. The preculture was conducted using a soybean casein digest agar medium at 30-35° C. for 18-24 hr.
An emulsion composition to be subjected to the test was used as a sample, and the sample was dispensed to 5 sterilized stoppered test tubes by 10 mL each. A precultured test microorganism was added to the sample such that the cell count was 10^5-10^6 cells/mL to give a mixed sample. The test microorganism was singly added to the sample. The mixed sample was preserved at 20-25° C. with protection from light.
At 6 hr and 24 hr from the start of the preservation, 1 mL of each mixed sample was taken, and the solution was diluted with saline (9 mL). Similar dilution was performed 2-3 times and each diluted solution (1 mL) was dispensed to a sterilized petri dish, and then, 0.1 (w/v) % lecithin-0.7 (w/v) % polysorbate 80-added soybean casein digest agar medium was added to the bacteria, and the mixture was cultured at 30-35° C. for about 3 days. The colony forming units were measured, and the viable cell count per 1 mL of the mixed sample was calculated.
When the viable cell counts of all microbial species decreased by 3 log or more after 24 hr from the start of the test, an immediate effectiveness of preservative efficacy was judged to be present and the judgment was compatible. When further immediate effectiveness of preservative efficacy is demanded, it was judged to be present when the viable cell counts of all microbial species decreased by 3 log or more after 24 hr from the start of the test and the viable cell counts of all microbial species decreased by 2 log or more after 6 hr from the start of the test, and the judgment was compatible.

[1] = added as preservative to difluprednate emulsion composition

Molecule: benzalkonium chloride
- immediate effectiveness of preservative efficacy [1]: not found

Molecule: O=[N+]([O-])[O-].[Ag+] [silver nitrate]
- concentration at which further (excellent) immediate effectiveness was found (as silver ion, 6 hr and 24 hr criteria, in difluprednate emulsion): not less than 0.005 (w/v) %
- concentration at which immediate effectiveness of preservative efficacy was found (as silver ion, 24 hr criterion, in difluprednate emulsion): not less than 0.0005 (w/v) %

Molecule: O=S(=O)([O-])[O-].[Cu+2] [copper sulfate]
- concentration at which excellent immediate effectiveness of preservative efficacy was obtained: not less than 0.0005 (w/v) %

Molecule: Oc1cccc2cccnc12 [oxyquinoline sulfate]
- immediate effectiveness of preservative efficacy: not found

Molecule: C/C=C/C=C/C(=O)O [sorbic acid]
- immediate effectiveness of preservative efficacy [1]: not found
